Measurements reported in PubChem BioAssay (NCI).
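All cell lines were grown in 96-well plates and treated with compound for 48 hours. Abbreviation: GI50, concentration required for 50% inhibition of growth. At the TGI there is no net growth.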

What was measured:
Experiment in all cases: inhibition of tumour cell growth, NCI panel, 48 h
TK-10 renal = test system: TK-10 renal
HCT-116 colon = test system: HCT-116 colon
K-562 leukemia = test system: K-562 leukemia
CCRF-CEM leukemia = test system: CCRF-CEM leukemia
SF-295 CNS = test system: SF-295 CNS
MCF7 breast = test system: MCF7 breast
PC-3 prostate = test system: PC-3 prostate
RXF 393 renal = test system: RXF 393 renal
UACC-62 melanoma = test system: UACC-62 melanoma
MALME-3M melanoma = test system: MALME-3M melanoma

| Structure (SMILES) | GI50 (TK-10 renal) | TGI (TK-10 renal) | GI50 (HCT-116 colon) | TGI (HCT-116 colon) | GI50 (K-562 leukemia) | TGI (K-562 leukemia) | GI50 (CCRF-CEM leukemia) | TGI (CCRF-CEM leukemia) | GI50 (SF-295 CNS) | TGI (SF-295 CNS) | GI50 (MCF7 breast) | TGI (MCF7 breast) | GI50 (PC-3 prostate) | TGI (PC-3 prostate) | GI50 (RXF 393 renal) | TGI (RXF 393 renal) | GI50 (UACC-62 melanoma) | TGI (UACC-62 melanoma) | GI50 (MALME-3M melanoma) | TGI (MALME-3M melanoma) |
| --- | --- | --- | --- | --- | --- | --- | --- | --- | --- | --- | --- | --- | --- | --- | --- | --- | --- | --- | --- | --- |
| COc1cc(/C=C/C(=O)c2c(C)nc3ccccc3c2/C=C/c2ccc(C)cc2)cc(OC)c1OC | 5.37 µM | 67 µM | 1.36 µM | 2.82 µM | 2.75 µM | > 100 µM | 2.83 µM | > 100 µM | 2.19 µM | 5.4 µM | 1.39 µM | 3.51 µM | 2.59 µM | 8.76 µM | 1.63 µM | 3.13 µM | 1.6 µM | 3.08 µM | 1.85 µM | 3.52 µM |
| COc1cc(/C=N/NC(=O)c2cnn3c2NC(c2ccccc2)C3)ccc1Oc1ccccc1 (centres undefined) | 2.62 µM | 11.5 µM | – | – | 0.571 µM | 18.6 µM | 1.43 µM | > 100 µM | 0.522 µM | 2.08 µM | 0.436 µM | 10.2 µM | 0.875 µM | 3.59 µM | 1.5 µM | 4.53 µM | 0.888 µM | 7.3 µM | 1.21 µM | 5.26 µM |
| Cc1ccc2c(c1)C(C)Cc1c(Cl)ncnc1N2C (centres undefined) | 4.32 µM | 34.4 µM | 3.01 µM | 14.2 µM | 3.47 µM | > 100 µM | 3.82 µM | > 100 µM | 3.12 µM | 25.2 µM | 2.96 µM | 11.7 µM | 3.62 µM | 72.1 µM | 2.87 µM | 8.62 µM | 3.72 µM | 21.8 µM | 1.76 µM | 6.5 µM |
| COc1ccc(-n2cc(-c3cc(OC)c(OC)c(OC)c3)nc2SCc2ccccc2)cc1OC | > 100 µM | > 100 µM | 49.1 µM | > 100 µM | 54.7 µM | > 100 µM | > 100 µM | > 100 µM | > 100 µM | > 100 µM | 34.6 µM | > 100 µM | 15.3 µM | > 100 µM | 56.3 µM | > 100 µM | 44.9 µM | > 100 µM | > 100 µM | > 100 µM |
| Cc1cc(=O)[nH]c2cc3c(c4c(n3Cc3ccc(Cl)cc3Cl)CC(C)(C)CC4=O)c(O)c12 | > 100 µM | > 100 µM | > 100 µM | > 100 µM | > 100 µM | > 100 µM | 82.3 µM | > 100 µM | 16.4 µM | 63.5 µM | > 100 µM | > 100 µM | > 100 µM | > 100 µM | > 100 µM | > 100 µM | > 100 µM | > 100 µM | 29.9 µM | 75.9 µM |
| COC(=O)C1=C(C(=O)OC)SC(=C(Cl)C(=S)Nc2ccccc2O)S1 | 7.05 µM | 23.9 µM | 0.143 µM | > 50 µM | 22.6 µM | > 50 µM | > 50 µM | > 50 µM | 6.57 µM | 24.9 µM | 8.57 µM | 25.7 µM | 22.2 µM | > 50 µM | 11.7 µM | 29.5 µM | 8.84 µM | 18.6 µM | 21.7 µM | > 50 µM |
| COc1ccc(C(=O)/C=C/c2ccc3c(c2)OCO3)c(OCc2ccccc2)c1 | – | > 100 µM | – | > 100 µM | – | > 100 µM | – | > 26.9 µM | – | > 100 µM | – | > 100 µM | – | > 100 µM | – | > 100 µM | – | > 100 µM | – | > 100 µM |
| CC(C)COCC(CN(Cc1ccccc1)c1ccccc1)N1CCCC1 (centres undefined) | 3.43 µM | 12 µM | 2.52 µM | 10.4 µM | 3.43 µM | 10.3 µM | 2.71 µM | 13.7 µM | 2.02 µM | 6.5 µM | 2.06 µM | 4.78 µM | 3.04 µM | 13.9 µM | 1.76 µM | 6.37 µM | 2.87 µM | 12.5 µM | 1.89 µM | 4.74 µM |
| CNCCNc1c2c(c(NCCNC)c3[nH]ccc13)C(=O)c1ccccc1C2=O | 0.183 µM | 0.502 µM | 0.0269 µM | 0.498 µM | 0.126 µM | > 100 µM | 0.0148 µM | 0.203 µM | 0.139 µM | 0.901 µM | 0.154 µM | 1.19 µM | 0.0593 µM | 0.309 µM | 0.214 µM | 0.752 µM | 0.231 µM | 1.05 µM | 0.258 µM | 1.32 µM |
| CC(NCCC(=O)N(CCC(=O)N(CCC(=O)N(CCC(=O)N(CCC(=O)N(CCC(=O)N(CCC(=O)N(CCC(=O)N(CCC(=O)N(CCC(=O)O)[C@H](C)c1ccccc1)[C@H](C)c1ccccc1)[C@H](C)c1ccccc1)[C@H](C)c1ccccc1)[C@H](C)c1ccccc1)[C@H](C)c1ccccc1)[C@H](C)c1ccccc1)[C@H](C)c1ccccc1)[C@H](C)c1ccccc1)c1ccccc1 (some centres undefined) | 3.38 µM | 23.2 µM | 1.95 µM | > 19.9 µM | 2.29 µM | > 75 µM | 1.89 µM | > 19.5 µM | 1.92 µM | 5.55 µM | 2.03 µM | > 26.1 µM | 2.66 µM | > 75 µM | 1.47 µM | 3.78 µM | 1.32 µM | 2.96 µM | 2.04 µM | 5.91 µM |
| Oc1ccccc1C=Nc1nc(SCc2ccccc2)nc2[nH]ncc12 | 23.9 µM | > 100 µM | – | – | 35.2 µM | > 100 µM | 45.7 µM | > 100 µM | 52 µM | > 100 µM | 39.1 µM | > 100 µM | 37.2 µM | > 100 µM | 32.5 µM | > 100 µM | 28.1 µM | 73.7 µM | 34.8 µM | > 100 µM |
| COc1ccc(NC(=O)COCCOCCNC[C@@H]2C(=O)O[C@H]3[C@H]2CC/C(COC(=O)OC/C2=C/CC[C@@]4(C)O[C@H]4[C@H]4OC(=O)[C@@H](CN(C)C)[C@@H]4CC2)=C\CC[C@@]2(C)O[C@@H]32)c(O)c1C(N)=O | 2.72 µM | 9.12 µM | 3.5 µM | 9.86 µM | – | – | 1.21 µM | 3.27 µM | > 50 µM | > 50 µM | 1.63 µM | 9.01 µM | 11.1 µM | 26.9 µM | 1.3 µM | 3.59 µM | 5.11 µM | 11.4 µM | 1.52 µM | 4.12 µM |
